Among the data in ChEMBL document CHEMBL1926534, “Efficient synthesis of a novel m-phenylene derivative as a selective EP4 agonist inducing follicular growth and maturation in the ovary” (Bioorg Med Chem Lett, 2011) are EC50 and EC values, retold here.

A short description of experiment [1]: Agonist activity at Prostaglandin E2 receptor EP1/EP2 in guinea pig ileum. It counts as functional, tissue-based. The conditions noted are these: Cavia porcellus.
The nature of experiment [2]: Agonist activity at EP3 receptor in guinea pig uterus assessed as concentration required to reach uterine motility index number 2000. The format is functional, Cavia porcellus.
In experiment [3] the target is Prostaglandin E2 receptor EP4 subtype (Oryctolagus cuniculus, UniProt Q28691). Nature of the experiment: Agonist activity at rabbit EP4 receptor assessed as relaxation of Kcl-induced tissue contraction by isometric transducer method. It counts as functional.
Chain of Prostaglandin E2 receptor EP4 subtype (Q28691 whole entry): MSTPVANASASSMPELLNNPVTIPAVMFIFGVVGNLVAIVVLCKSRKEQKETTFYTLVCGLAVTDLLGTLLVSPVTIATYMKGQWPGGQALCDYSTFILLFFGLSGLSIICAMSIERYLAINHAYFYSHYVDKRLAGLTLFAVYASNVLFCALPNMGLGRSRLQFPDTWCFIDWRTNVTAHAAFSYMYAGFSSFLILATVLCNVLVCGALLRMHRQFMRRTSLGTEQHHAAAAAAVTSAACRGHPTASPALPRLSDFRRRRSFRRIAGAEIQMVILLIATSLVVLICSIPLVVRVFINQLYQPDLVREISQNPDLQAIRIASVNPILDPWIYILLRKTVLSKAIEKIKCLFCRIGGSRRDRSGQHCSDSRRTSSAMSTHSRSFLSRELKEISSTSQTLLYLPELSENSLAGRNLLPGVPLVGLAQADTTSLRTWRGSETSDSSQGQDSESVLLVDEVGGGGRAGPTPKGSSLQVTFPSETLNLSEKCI

As a reminder, the pEC50 is the EC50 on a negative log10 scale, so that one unit is a factor of ten.

pEC50: −log10 of the molar value.

Turning to `O[C@H](/C=C/[C@@H]1[C@H]2c3cccc(CCc4nnn[nH]4)c3O[C@H]2C[C@H]1O)CC1CCCCC1`, the negative logarithm of the EC50 (pEC50) in experiment [1] is 5.47; in experiment [3], 8.59. Besides, the EC in experiment [2] is 2800 nM.

On to `O=C(O)CCc1cccc2c1O[C@H]1C[C@@H](O)[C@H](/C=C/[C@@H](O)CC3CCCCC3)[C@@H]21`, for which the values for the negative logarithm of the EC50 (pEC50) in experiment [1] and in experiment [3] were 6.82 and 8.24, respectively. Besides, the EC in experiment [2] amounted to 540 nM.
